Key:
U226 MM cells [1] = test: Immunoblotting for DNA damage response (phospho-ATM, phospho-chk-2) in U226 MM cells; format: cell-based
Experimental: (§1) Antibodies used for immunoblotting were: anti-phospho-ATM (ser 1981), anti-ATM, anti-phospho-ATR (ser 428), anti-ATR, anti-phospho-chk-1 (ser 280) and anti-phospho-chk-2 (thr 68) (Cell Signaling, Beverly, Mass.). Immunoblotting was performed according to standard methods. In some experiments, U226 cells were transiently transfected with expression plasmids encoding human chk-1 shRNA (5′-[…]-3′) (SEQ ID NO: 1), chk-2 shRNA, or ATM shRNA (Upstate cell signaling, Lake Placid, N.Y.) according to the manufacturer's instructions. The efficiency of gene knockdown was 50%-90% as assessed by immunoblotting.
(§2) U226, RPMI, and MM-1R cells were obtained from the American Type Culture Collection (Manassas, Va.), and MM-1S cells were a gift of Dr. Steven Rosen (Northwestern University). […] U226-MICA cells were generated with retroviral mediated gene transfer according to standard methods.
(§3) The effect of the proteasome inhibitor Bortezomib, a MM therapeutic, on MICA expression and the DNA damage response pathway was analyzed. U226 and RPMI-8226 MM cells were treated with 20 μM Bortezomib, 250 μg/ml dexamethasone or 10 μg/ml aphidicolin (a DNA polymerase inhibitor that served as a control for inducing DNA damage) for the indicated times. Cell lysates were prepared and evaluated for phospho-ATM (ser 1981), ATM, phospho-chk-2 (thr 68) or chk-2 by immunoblotting. […]

RPMI-8226 MM cells = test: Immunoblotting for DNA damage response (phospho-ATM, phospho-chk-2) in RPMI-8226 MM cells; format: cell-based; settings: 20 μM Bortezomib or 250 μg/ml dexamethasone
Experimental: as §1, §2, §3

MM-1S cells = test: Immunoblotting for phospho-ATM and total ATM in MM-1S cells; format: cell-based; settings: 10 μM Bortezomib
Experimental: as §1, §2, §3

U226 MM cells [2] = test: Dendritic cell cross-presentation of MGUS sera-coated treated U226 MM cells, IFN-γ ELISPOT of CD8+ T cells; format: cell-based; settings: drug treated U226 MM cells coated with MGUS sera; CD8+ T cells stimulated seven days
Experimental: Donor peripheral blood mononuclear cells (PBMCs) were incubated in 10% patient sera as described above, and NK cells, isolated by magnetic cell sorting (Miltenyl Biotech), were tested in four-hour lysis assays against ^51Cr-labeled K562 target cells. The spontaneous release in all assays was less than 20% of the maximum. Dendritic cells (generated from adherent PBMCs with GM-CSF and IL-4) were co-cultured with opsonized tumor cells (1:1 ratio) for 20 hours, matured with LPS (Sigma-Aldrich) for 24 hours, and then used to stimulate autologous CD8+ T cells, isolated by magnetic cell sorting, for seven days. Antigen specific IFN-γ production was then determined by ELISPOT. For enzyme-linked immunospot (ELISPOT) analysis, ImmunoSpotplates (Cellular Technology) were coated overnight at 37° C. with 10 μg/ml anti-IFN-γ mAb (Mabtech). […] Spots were developed by using BCIP/NBT as a color development substrate and counted with an ImmunoSpot microplate reader (Cellular Technology, Cleveland).
(§4) For the experiment shown in FIG. 16B, the indicated MM cells were treated with 20 μM Bortezomib overnight and surface MICA expression was determined with flow cytometry. […] IFN-γ production was measured by ELISPOT against dendritic cells loaded with U226 MM cells. […]

U226 MM cells [3] = test: Surface MICA expression by flow cytometry in U226 MM cells; format: cell-based; settings: 20 μM Bortezomib overnight
Experimental: (§5) PBMCs and bone marrow aspirates were processed by Ficoll-Hypaque (Pharmacia) density-gradient centrifugation. PBMCs from healthy donors or patients were incubated for 48 hours in patient or control sera (10%) in complete media and stained with PE-conjugated anti-NKG2D mAb (Pharmingen), FITC-conjugated anti-CD3 mAb (BD-Biosciences Pharmingen), and either PC5-conjugated anti-CD8 mAb or PC5-conjugated anti-CD56 mAb (Beckman-Coulter). In Examples 9-11, antibodies used, in addition to the above, were: FITC-conjugated anti-CD138, PE-conjugated anti-MICA mAb (R&D Systems), and anti-ERp5 (Axxora Platform) followed by FITC-conjugated anti-rabbit (Southern Biotech). Cells were analyzed with a FW501 flow cytometer (Beckman-Coulter) and FlowJo software (Tree Star). Cells were gated for CD3^+CD8^+ T cells and CD3^−CD56^+ NK cells. […] Cells were analyzed with a FACScan cytometer (Becton Dickinson). […]
as §4

MM-1R MM cells = test: Surface MICA expression by flow cytometry in MM-1R MM cells; format: cell-based; settings: 20 μM Bortezomib overnight
Experimental: as §5, §4

sMICA = sMICA ELISA on longitudinal MEL15 sera; format: in vivo, human; settings: patient MEL15 sera
Experimental: (§6) Anti-MICA antibodies and sMICA levels were measured with ELISAs using recombinant MICA protein (ProSpec-Tany TechnoGene Inc.) and anti-human MICA monoclonal antibodies (R&D Systems). The lower limits of the assay were 90 pg/ml. The Wilcoxon rank sum test with no adjustments for multiple comparisons was used to analyze the differences among the normal donors, MGUS, and MM patients. For complement assays, 293T and 293-T-MICA cells, generated by retroviral mediated gene transfer were incubated with patient sera and human complement (Sigma-Aldrich) and lysis quantified using MTT (Roche Diagnostic GmbH).
Soluble MICA (sMICA) levels were also analyzed. […] The reduction in sMICA was confirmed with immunoblotting analysis of MEL15 sera using an anti-MICA monoclonal antibody.

MICA = test: Anti-MICA antibody ELISA with recombinant MICA protein on longitudinal patient sera; format: in vivo, human; settings: patient MEL15; sera diluted 1:500
Experimental: as §6
The humoral response to MICA was analyzed by an ELISA with recombinant MICA protein as described in Example 1. Longitudinal sera samples from MEL15 were diluted 1:500. Downward arrows denote tumor cell vaccinations and upward arrows depict infusions of MDX-010.
Patient M37 entered study with visceral melanoma metastases, which were completely resected for vaccine manufacture. […] Subsequent isolated recurrences were processed into additional vaccines, whereas the patient succumbed to progressive disease 4.5 years after study entry.

## CC(C)C[C@H](NC(=O)[C@H](Cc1ccccc1)NC(=O)c1cnccn1)B(O)O [Bortezomib]
U226 MM cells [1]; 10 μM Bortezomib
  ATM phosphorylation (ser 1981): induced ATM phosphorylation
U226 MM cells [1]; 20 μM Bortezomib or 250 μg/ml dexamethasone
  phosphorylation of ATM (ser 1981) and chk-2 (thr 68): triggered the rapid phosphorylation
RPMI-8226 MM cells
  phosphorylation of ATM (ser 1981) and chk-2 (thr 68): but not RPMI MM cells
MM-1S cells
  ATM (total ATM, immunoblot): stimulated the degradation of ATM
U226 MM cells [2]
  dendritic cell cross-presentation of treated U226 cells by MGUS sera (IFN-γ ELISPOT): as efficiently as U226-MICA cells
U226 MM cells [3]
  surface expression of MICA: increased the surface expression of MICA
MM-1R MM cells
  surface expression of MICA: increased the surface expression of MICA

## MDX-010: fully human anti-CTLA-4 blocking monoclonal antibody
sMICA
  sMICA levels: sharp decrease
MICA
  anti-MICA antibody titers: elevated levels of anti-MICA antibodies

— patent US20140037630A1, “METHODS FOR TREATING MICA-RELATED DISORDERS” (DANA-FARBER CANCER INSTITUTE, INC., priority 2006, published 2014)
